Measurements from paper PMC5560747, “Computational-experimental approach to drug-target interaction mapping: A case study on kinase inhibitors” (PLoS Computational Biology, 2017).

Legend:
Aurora A = molecular target: T1, Aurora A (Homo sapiens, UniProt O14965); test: ADP-Glo Kinase Assay, tivozanib off-target testing; type: biochemical; conditions: read-out: Experimental validation pIC50 (converted)
T1 construct: purchased SignalChem A28-18G-10
T1 sequence (O14965 1-403): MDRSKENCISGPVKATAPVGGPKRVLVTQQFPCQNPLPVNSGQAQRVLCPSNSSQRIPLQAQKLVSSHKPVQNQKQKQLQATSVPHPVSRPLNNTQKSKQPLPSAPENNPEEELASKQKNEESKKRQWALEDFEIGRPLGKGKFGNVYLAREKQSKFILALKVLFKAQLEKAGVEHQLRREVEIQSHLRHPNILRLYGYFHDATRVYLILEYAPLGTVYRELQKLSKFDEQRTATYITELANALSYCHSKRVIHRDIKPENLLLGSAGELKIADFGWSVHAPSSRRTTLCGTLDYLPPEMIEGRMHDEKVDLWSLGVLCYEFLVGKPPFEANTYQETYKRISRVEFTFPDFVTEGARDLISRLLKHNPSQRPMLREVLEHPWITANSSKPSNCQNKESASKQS
Protocol: (§1) The kinase inhibitors were dissolved to 1X Kinase Buffer with 5% DMSO by transferring 200nL of the buffer using ECHO525 Liquid handler (Labcyte). […] The dissolved kinases and 2.5X kinase buffer controls were transferred at 400nL using ECHO525. […] The 2.5X ATP/substrate working stocks were transferred at 400nL using ECHO525.
(§2) For the ADP detection, 1 μl ADP-Glo reagent was dispensed (Thermo Scientific Multidrop Combi nL). […] Next, 2 μl kinase detection reagent was dispensed with Thermo Scientific Multidrop Combi nL.
(§3) Kinase assay, kinase dilution and substrate buffers were as indicated by the manufacturer (Promega). The assays were performed in the same way as with the kinases from the Kinase Selectivity Profiling System + ADP-Glo Assay kits (see previous section). All the assays were done in three individual experiments, each having three replicates.
(§4) IC50 values from all the experiments were obtained with GraphPad Prism 7 (GraphPad Software, Inc. California, USA) using inhibitor vs. response—variable slope (four parameters) analysis. […] X-axis scale was set to log10.

FYN A = FYN A (Homo sapiens, UniProt P06241); test: ADP-Glo Kinase Assay, tivozanib off-target testing; type: biochemical; conditions: read-out: Experimental validation pIC50 (converted)
Chain of FYN A (P06241 whole entry): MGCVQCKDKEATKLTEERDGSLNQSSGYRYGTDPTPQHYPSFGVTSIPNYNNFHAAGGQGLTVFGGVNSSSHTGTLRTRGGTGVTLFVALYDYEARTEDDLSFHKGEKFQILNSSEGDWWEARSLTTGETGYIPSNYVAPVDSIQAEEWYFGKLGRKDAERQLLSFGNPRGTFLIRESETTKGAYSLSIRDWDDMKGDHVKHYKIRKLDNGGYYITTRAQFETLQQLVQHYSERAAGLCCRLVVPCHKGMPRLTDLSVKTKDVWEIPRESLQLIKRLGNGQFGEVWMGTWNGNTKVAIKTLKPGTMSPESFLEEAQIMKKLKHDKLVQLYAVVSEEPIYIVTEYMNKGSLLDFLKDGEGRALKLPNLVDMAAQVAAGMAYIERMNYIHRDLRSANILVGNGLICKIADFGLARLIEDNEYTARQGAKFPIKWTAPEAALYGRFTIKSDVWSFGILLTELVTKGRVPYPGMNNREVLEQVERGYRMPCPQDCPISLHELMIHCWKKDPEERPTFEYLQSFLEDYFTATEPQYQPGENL
Protocol: as §1, §2, §3, §4

LCK = LCK (Homo sapiens, UniProt P06239); design: method as in Gao et al. [42]; conditions: ref Gao et al. [42], cited from earlier work
Chain of LCK (P06239 whole entry): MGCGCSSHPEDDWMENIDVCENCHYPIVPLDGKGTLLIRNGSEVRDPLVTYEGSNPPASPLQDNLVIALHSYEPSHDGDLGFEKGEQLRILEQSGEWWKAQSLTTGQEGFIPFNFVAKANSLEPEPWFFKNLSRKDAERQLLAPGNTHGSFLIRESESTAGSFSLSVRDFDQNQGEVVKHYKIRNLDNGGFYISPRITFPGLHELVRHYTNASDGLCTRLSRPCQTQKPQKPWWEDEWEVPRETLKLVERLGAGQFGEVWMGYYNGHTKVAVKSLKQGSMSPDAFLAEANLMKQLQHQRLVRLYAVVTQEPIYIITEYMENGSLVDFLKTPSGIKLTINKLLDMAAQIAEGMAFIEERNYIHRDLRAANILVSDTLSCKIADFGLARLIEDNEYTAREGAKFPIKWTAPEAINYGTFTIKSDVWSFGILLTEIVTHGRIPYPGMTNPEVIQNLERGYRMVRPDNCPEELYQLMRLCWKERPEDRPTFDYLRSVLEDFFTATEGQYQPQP

AXL = molecular target: T2, AXL (Homo sapiens, UniProt P30530); design: method as in Gao et al. [42]; conditions: ref Gao et al. [42], cited from earlier work
T2 sequence (P30530 26-894): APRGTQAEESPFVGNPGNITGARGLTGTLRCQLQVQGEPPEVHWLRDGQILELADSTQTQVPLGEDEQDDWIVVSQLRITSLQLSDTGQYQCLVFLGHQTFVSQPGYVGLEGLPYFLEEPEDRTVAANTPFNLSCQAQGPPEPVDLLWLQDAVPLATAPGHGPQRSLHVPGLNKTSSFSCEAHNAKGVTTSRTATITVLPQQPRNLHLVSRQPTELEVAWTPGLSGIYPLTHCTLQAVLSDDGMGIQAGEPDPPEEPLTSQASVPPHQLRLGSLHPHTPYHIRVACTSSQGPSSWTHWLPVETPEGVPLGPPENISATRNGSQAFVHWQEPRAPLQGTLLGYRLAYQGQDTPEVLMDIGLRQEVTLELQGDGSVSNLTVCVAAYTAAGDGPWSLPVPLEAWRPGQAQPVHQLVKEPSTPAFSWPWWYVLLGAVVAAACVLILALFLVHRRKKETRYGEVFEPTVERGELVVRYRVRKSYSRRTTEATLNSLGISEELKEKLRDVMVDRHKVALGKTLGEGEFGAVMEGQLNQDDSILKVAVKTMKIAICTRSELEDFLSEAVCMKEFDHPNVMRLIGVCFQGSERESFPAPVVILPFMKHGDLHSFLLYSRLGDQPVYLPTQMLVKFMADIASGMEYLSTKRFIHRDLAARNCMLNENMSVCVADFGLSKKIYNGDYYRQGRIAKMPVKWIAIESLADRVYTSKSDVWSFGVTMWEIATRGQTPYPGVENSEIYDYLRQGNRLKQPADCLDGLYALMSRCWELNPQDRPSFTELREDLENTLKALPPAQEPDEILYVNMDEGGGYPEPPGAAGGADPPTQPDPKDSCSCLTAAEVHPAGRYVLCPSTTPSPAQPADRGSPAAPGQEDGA

Aurora B = system: Aurora B; design: method as in Gao et al. [42]; conditions: ref Gao et al. [42], cited from earlier work
FGFR3 = system: FGFR3; design: method as in Gao et al. [42]; conditions: ref Gao et al. [42], cited from earlier work
MELK = system: MELK; design: method as in Gao et al. [42]; conditions: ref Gao et al. [42], cited from earlier work
GSK3b = system: GSK3b; design: method as in Gao et al. [42]; conditions: ref Gao et al. [42], cited from earlier work
MAPK9 = system: MAPK9; design: method as in Gao et al. [42]; conditions: ref Gao et al. [42], cited from earlier work
CLK2 = system: CLK2; design: method as in Gao et al. [42]; conditions: ref Gao et al. [42], cited from earlier work
CAMK2D = system: CAMK2D; design: method as in Gao et al. [42]; conditions: ref Gao et al. [42], cited from earlier work
CAMK2g = system: CAMK2g; design: method as in Gao et al. [42]; conditions: ref Gao et al. [42], cited from earlier work
JNK1 = system: JNK1; design: method as in Gao et al. [42]; conditions: ref Gao et al. [42], cited from earlier work
PHKG2 = system: PHKG2; design: method as in Gao et al. [42]; conditions: ref Gao et al. [42], cited from earlier work
ERK6 = system: ERK6; design: method as in Gao et al. [42]; conditions: ref Gao et al. [42], cited from earlier work
PIM3 = system: PIM3; design: method as in Gao et al. [42]; conditions: ref Gao et al. [42], cited from earlier work
AKT2 = system: AKT2; design: method as in Gao et al. [42]; conditions: ref Gao et al. [42], cited from earlier work
NEK2 = system: NEK2; design: method as in Gao et al. [42]; conditions: ref Gao et al. [42], cited from earlier work
ERK2 = system: ERK2; design: method as in Gao et al. [42]; conditions: ref Gao et al. [42], cited from earlier work
CDK1 = system: CDK1; design: method as in Gao et al. [42]; conditions: ref Gao et al. [42], cited from earlier work
AKT3 = system: AKT3; design: method as in Gao et al. [42]; conditions: ref Gao et al. [42], cited from earlier work

In the case of `COc1cc2nccc(Oc3ccc(NC(=O)Nc4cc(C)on4)c(Cl)c3)c2cc1OC` [TIVOZANIB, Tivozanib], the IC50 (Aurora A) is given as over 12.5 µM, the IC50 (FYN A) is given as 0.398 µM and the “Gao et al. % of activity remaining at 1 µM” value (LCK; 1 µM) is given as -2%. For the same compound, the “Gao et al. % of activity remaining at 10 µM” value (LCK; 10 µM) was 1%, the “Gao et al. % of activity remaining at 1 µM” value (AXL; 1 µM) was 12% and the “Gao et al. % of activity remaining at 10 µM” value (AXL; 10 µM) was 10%. The “Gao et al. % of activity remaining at 1 µM” value (Aurora B; 1 µM) was 3%, the “Gao et al. % of activity remaining at 10 µM” value (Aurora B; 10 µM) was 1% and the “Gao et al. % of activity remaining at 1 µM” value (FGFR3; 1 µM) was 59%. The “Gao et al. % of activity remaining at 10 µM” value (FGFR3; 10 µM) was 28%, the “Gao et al. % of activity remaining at 1 µM” value (MELK; 1 µM) was 91% and the “Gao et al. % of activity remaining at 10 µM” value (MELK; 10 µM) was 80%. For the same compound, the “Gao et al. % of activity remaining at 1 µM” value (GSK3b; 1 µM) was 104%, the “Gao et al. % of activity remaining at 10 µM” value (GSK3b; 10 µM) was 94% and the “Gao et al. % of activity remaining at 1 µM” value (MAPK9; 1 µM) was 104%. For the same compound, the “Gao et al. % of activity remaining at 10 µM” value (MAPK9; 10 µM) was 88%, the “Gao et al. % of activity remaining at 1 µM” value (CLK2; 1 µM) was 114% and the “Gao et al. % of activity remaining at 10 µM” value (CLK2; 10 µM) was 99%. For the same compound, the “Gao et al. % of activity remaining at 1 µM” value (CAMK2D; 1 µM) was 102%, the “Gao et al. % of activity remaining at 10 µM” value (CAMK2D; 10 µM) was 90% and the “Gao et al. % of activity remaining at 1 µM” value (CAMK2g; 1 µM) was 108%. For the same compound, the “Gao et al. % of activity remaining at 10 µM” value (CAMK2g; 10 µM) was 70%, the “Gao et al. % of activity remaining at 1 µM” value (JNK1; 1 µM) was 120% and the “Gao et al. % of activity remaining at 10 µM” value (JNK1; 10 µM) was 109%. The “Gao et al. % of activity remaining at 1 µM” value (PHKG2; 1 µM) was 95%, the “Gao et al. % of activity remaining at 10 µM” value (PHKG2; 10 µM) was 66% and the “Gao et al. % of activity remaining at 1 µM” value (ERK6; 1 µM) was 100%. For the same compound, the “Gao et al. % of activity remaining at 10 µM” value (ERK6; 10 µM) was 94%, the “Gao et al. % of activity remaining at 1 µM” value (PIM3; 1 µM) was 107% and the “Gao et al. % of activity remaining at 10 µM” value (PIM3; 10 µM) was 105%. For the same compound, the “Gao et al. % of activity remaining at 1 µM” value (AKT2; 1 µM) was 105%, the “Gao et al. % of activity remaining at 10 µM” value (AKT2; 10 µM) was 89% and the “Gao et al. % of activity remaining at 1 µM” value (NEK2; 1 µM) was 88%. For the same compound, the “Gao et al. % of activity remaining at 10 µM” value (NEK2; 10 µM) was 100%, the “Gao et al. % of activity remaining at 1 µM” value (ERK2; 1 µM) was 103% and the “Gao et al. % of activity remaining at 10 µM” value (ERK2; 10 µM) was 104%. The “Gao et al. % of activity remaining at 1 µM” value (CDK1; 1 µM) was 100%, the “Gao et al. % of activity remaining at 10 µM” value (CDK1; 10 µM) was 94% and the “Gao et al. % of activity remaining at 1 µM” value (AKT3; 1 µM) was 95%. For the same compound, the “Gao et al. % of activity remaining at 10 µM” value (AKT3; 10 µM) was 89%.
